As for `CC(C)CC(=O)c1c[nH]c2ncc(Br)nc12` [Compound I-1, 1-(2-Bromo-5H-pyrrolo[2,3-b]pyrazin-7-yl)-3-methyl-butan-1-one], the melting point is 183 to 187.5 °C.

Compound `CC(C)NC(=O)c1c[nH]c2ncc(Cl)nc12` [Compound I-3, 2-Chloro-5H-pyrrolo[2,3-b]pyrazine-7-carboxylic acid isopropylamide] had a melting point of 278 to 279 °C.

Consider `CC(C)(C)C(=O)c1c[nH]c2ncc(Cl)nc12` [Compound I-6, 1-(2-Chloro-5H-pyrrolo[2,3-b]pyrazin-7-yl)-2,2-dimethyl-propan-1-one], for which the melting point was 209 to 210 °C.

With `CC1(C(=O)c2c[nH]c3ncc(Br)nc23)CCCCC1` [Compound I-7, (2-Bromo-5H-pyrrolo[2,3-b]pyrazin-7-yl)-(1-methyl-cyclohexyl)-methanone], the melting point lay within 198 to 199 °C.

The compound `CC(C)(C)C(=O)c1c[nH]c2ncc(Br)nc12` [Compound I-8, 1-(2-Bromo-5H-pyrrolo[2,3-b]pyrazin-7-yl)-2,2-dimethyl-propan-1-one] returned a melting point of 213 to 214 °C.

In turn, `C#Cc1cnc2[nH]cc(C(=O)C(C)(C)C)c2n1` [Compound I-11, 1-(2-Ethynyl-5H-pyrrolo[2,3-b]pyrazin-7-yl)-2,2-dimethyl-propan-1-one] returned a melting point of 229 to 231 °C.

For `CCc1cnc2[nH]cc(C(=O)C(C)(C)C)c2n1` [Compound I-12, 1-(2-Ethyl-5H-pyrrolo[2,3-b]pyrazin-7-yl)-2,2-dimethyl-propan-1-one], the melting point was 215 to 216 °C.

Compound `CC(C)C(O)c1cnc2[nH]cc(C(=O)C(C)(C)C)c2n1` (stereo not shown) [Compound I-15, 1-[2-(1-Hydroxy-2-methyl-propyl)-5H-pyrrolo[2,3-b]pyrazin-7-yl]-2,2-dimethyl-propan-1-one] registered a melting point of 148 to 150 °C.

For `Cc1ccccc1C(O)c1cnc2[nH]cc(C(=O)C(C)(C)C)c2n1` (stereo not shown) [Compound I-16, 1-[2-(Hydroxy-o-tolyl-methyl)-5H-pyrrolo[2,3-b]pyrazin-7-yl]-2,2-dimethyl-propan-1-one], the melting point lay within 181 to 183 °C.

Turning to `CC(C)(C)C(=O)c1c[nH]c2ncc(C(O)c3ccccc3)nc12` (stereo not shown) [Compound I-17, 1-[2-(Hydroxy-phenyl-methyl)-5H-pyrrolo[2,3-b]pyrazin-7-yl]-2,2-dimethyl-propan-1-one], the melting point was in the range of 168 to 170 °C.

Compound `CC(C)(C)C(=O)c1c[nH]c2ncc(C(O)c3ccncc3)nc12` (stereo not shown) [Compound I-18, 1-[2-(Hydroxy-pyridin-4-yl-methyl)-5H-pyrrolo[2,3-b]pyrazin-7-yl]-2,2-dimethyl-propan-1-one] displayed a melting point of 189.1 to 194.9 °C.

`CC(C)(C)C(=O)c1c[nH]c2ncc(C(O)c3cccnc3)nc12` (stereo not shown) [Compound I-19, 1-[2-(Hydroxy-pyridin-3-yl-methyl)-5H-pyrrolo[2,3-b]pyrazin-7-yl]-2,2-dimethyl-propan-1-one] had a melting point of 192 to 194 °C.

Compound `CC1(C(=O)c2c[nH]c3ncc(Br)nc23)CCCCCC1` [Compound I-24, (2-Bromo-5H-pyrrolo[2,3-b]pyrazin-7-yl)-(1-methyl-cycloheptyl)-methanone] came in with a melting point of 197.7 to 198.2 °C.

The term melting point denotes the temperature, or range, at which the solid turns liquid.

These data come from patent US8119636B2, “Pyrrolopyrazine kinase inhibitors” (Roche Palo Alto LLC, priority 2008, dated 2012).
